Test results published in PubChem BioAssay AID1259407 (Chemical Carcinogenesis Research Information System (CCRIS), 2018).
Calls of active or inactive are those of the source. How the calls were made is not given here.

Tested on: CCRIS mutagenicity, Ames/micronucleus/aberration tests
Assay: CCRIS mutagenicity studies
[1] = Test System: AMES SALMONELLA TYPHIMURIUM, Strain/Indicator: TA98, Metabolic Activation: NONE, Method: STANDARD PLATE
[2] = Test System: AMES SALMONELLA TYPHIMURIUM, Strain/Indicator: TA100, Metabolic Activation: NONE, Method: STANDARD PLATE
[3] = Test System: AMES SALMONELLA TYPHIMURIUM, Strain/Indicator: TA98, Metabolic Activation: NONE, Method: PREINCUBATION
[4] = Test System: AMES SALMONELLA TYPHIMURIUM, Strain/Indicator: TA100, Metabolic Activation: NONE, Method: PREINCUBATION
[5] = Test System: AMES SALMONELLA TYPHIMURIUM, Strain/Indicator: TA1535, Metabolic Activation: NONE, Method: PREINCUBATION
[6] = Test System: AMES SALMONELLA TYPHIMURIUM, Strain/Indicator: TA1537, Metabolic Activation: NONE, Method: PREINCUBATION

`CC(=O)Nc1ccc(S(=O)(=O)c2ccc(NC(C)=O)cc2)cc1` was tested, and the mutagenic call [1] was “inactive; negative”, the mutagenic call (Test System: AMES SALMONELLA TYPHIMURIUM, Strain/Indicator: TA98, Metabolic Activation: RAT, LIVER, S-9, PCB, Method: STANDARD PLATE) was “inactive; negative” and the mutagenic call [2] was “inactive; negative”. For the same compound, the mutagenic call (Test System: AMES SALMONELLA TYPHIMURIUM, Strain/Indicator: TA100, Metabolic Activation: RAT, LIVER, S-9, PCB, Method: STANDARD PLATE) was “inactive; negative”.
For `CCc1ccc2c3c(cccc13)-c1ccccc1-2`, the mutagenic call [1] was “inactive; negative” and the mutagenic call (Test System: AMES SALMONELLA TYPHIMURIUM, Strain/Indicator: TA98, Metabolic Activation: RAT, LIVER, S-9, AROCLOR 1254 (4%), Method: STANDARD PLATE) was “inactive; negative”.
For `Nc1nc(-c2ccc([N+](=O)[O-])o2)cs1`, the mutagenic call (Test System: AMES SALMONELLA TYPHIMURIUM, Strain/Indicator: TA100, Metabolic Activation: RAT, LIVER, S-9, KC500 OR PHENOBARBITAL, Method: LIQUID SUSPENSION) was “active; positive” and the mutagenic call (Test System: E. COLI WP2, Strain/Indicator: WP2, Metabolic Activation: NONE, Method: SPOT) was “active; positive”.
`CC(=O)N(O)c1ccc2ccccc2c1` was tested, and the mutagenic call [3] was “inactive; negative”, the mutagenic call (Test System: AMES SALMONELLA TYPHIMURIUM, Strain/Indicator: TA98, Metabolic Activation: RAT, LIVER, CYTOSOL, Method: PREINCUBATION) was “inactive; negative” and the mutagenic call (Test System: AMES SALMONELLA TYPHIMURIUM, Strain/Indicator: TA98, Metabolic Activation: RAT, LIVER, MICROSOMES, Method: PREINCUBATION) was “active; positive”.
With `O[C@H]1[C@H]2O[C@H]2c2c(ccc3ccccc23)[C@@H]1O` the mutagenic call (Test System: AMES SALMONELLA TYPHIMURIUM, Strain/Indicator: TA97, Metabolic Activation: NONE, Method: PREINCUBATION) was “active; positive”, the mutagenic call [3] was “active; positive” and the mutagenic call [4] was “active; positive”. The mutagenic call [2] was “active; positive”, the mutagenic call (Test System: AMES SALMONELLA TYPHIMURIUM, Strain/Indicator: TA104, Metabolic Activation: NONE, Method: PREINCUBATION) was “active; positive” and the mutagenic call (Test System: CHINESE HAMSTER V-79, Strain/Indicator: V-79/6-THIOGUANINE, Metabolic Activation: NONE) was “active; positive”.
`O=[N+]([O-])c1ccc2c(c1)NCC2` was tested, and the mutagenic call [1] was “active; positive”.
`Oc1cc(Cl)cc(Cl)c1` was tested, and the mutagenic call (Test System: AMES SALMONELLA TYPHIMURIUM, Strain/Indicator: TA98, Metabolic Activation: HAMSTER, LIVER, S-9, AROCLOR 1254, Method: PREINCUBATION) was “inactive; negative”, the mutagenic call [3] was “inactive; negative” and the mutagenic call (Test System: AMES SALMONELLA TYPHIMURIUM, Strain/Indicator: TA98, Metabolic Activation: RAT, LIVER, S-9, AROCLOR 1254, Method: PREINCUBATION) was “inactive; negative”. The mutagenic call (Test System: AMES SALMONELLA TYPHIMURIUM, Strain/Indicator: TA100, Metabolic Activation: HAMSTER, LIVER, S-9, AROCLOR 1254, Method: PREINCUBATION) was “inactive; negative”, the mutagenic call [4] was “inactive; negative” and the mutagenic call (Test System: AMES SALMONELLA TYPHIMURIUM, Strain/Indicator: TA100, Metabolic Activation: RAT, LIVER, S-9, AROCLOR 1254, Method: PREINCUBATION) was “inactive; negative”. The mutagenic call (Test System: AMES SALMONELLA TYPHIMURIUM, Strain/Indicator: TA1535, Metabolic Activation: HAMSTER, LIVER, S-9, AROCLOR 1254, Method: PREINCUBATION) was “inactive; negative”, the mutagenic call [5] was “inactive; negative” and the mutagenic call (Test System: AMES SALMONELLA TYPHIMURIUM, Strain/Indicator: TA1535, Metabolic Activation: RAT, LIVER, S-9, AROCLOR 1254, Method: PREINCUBATION) was “inactive; negative”. For the same compound, the mutagenic call (Test System: AMES SALMONELLA TYPHIMURIUM, Strain/Indicator: TA1537, Metabolic Activation: HAMSTER, LIVER, S-9, AROCLOR 1254, Method: PREINCUBATION) was “inactive; negative”, the mutagenic call [6] was “inactive; negative” and the mutagenic call (Test System: AMES SALMONELLA TYPHIMURIUM, Strain/Indicator: TA1537, Metabolic Activation: RAT, LIVER, S-9, AROCLOR 1254, Method: PREINCUBATION) was “inactive; negative”.
In the case of `CC(=O)[O][Hg][c]1ccccc1`, the mutagenic call (Test System: AMES SALMONELLA TYPHIMURIUM, Strain/Indicator: TA98, Metabolic Activation: HAMSTER, LIVER, S-9, AROCLOR 1254 (10%), Method: PREINCUBATION) is reported as “inactive; negative”, the mutagenic call [3] is reported as “inactive; negative” and the mutagenic call (Test System: AMES SALMONELLA TYPHIMURIUM, Strain/Indicator: TA98, Metabolic Activation: RAT, LIVER, S-9, AROCLOR 1254 (10%), Method: PREINCUBATION) is reported as “inactive; negative”. For the same compound, the mutagenic call (Test System: AMES SALMONELLA TYPHIMURIUM, Strain/Indicator: TA100, Metabolic Activation: HAMSTER, LIVER, S-9, AROCLOR 1254 (10%), Method: PREINCUBATION) was “inactive; negative”, the mutagenic call [4] was “inactive; negative” and the mutagenic call (Test System: AMES SALMONELLA TYPHIMURIUM, Strain/Indicator: TA100, Metabolic Activation: RAT, LIVER, S-9, AROCLOR 1254 (10%), Method: PREINCUBATION) was “inactive; negative”. The mutagenic call (Test System: AMES SALMONELLA TYPHIMURIUM, Strain/Indicator: TA1535, Metabolic Activation: HAMSTER, LIVER, S-9, AROCLOR 1254 (10%), Method: PREINCUBATION) was “inactive; negative”, the mutagenic call [5] was “inactive; negative” and the mutagenic call (Test System: AMES SALMONELLA TYPHIMURIUM, Strain/Indicator: TA1535, Metabolic Activation: RAT, LIVER, S-9, AROCLOR 1254 (10%), Method: PREINCUBATION) was “inactive; negative”. The mutagenic call (Test System: AMES SALMONELLA TYPHIMURIUM, Strain/Indicator: TA1537, Metabolic Activation: HAMSTER, LIVER, S-9, AROCLOR 1254 (10%), Method: PREINCUBATION) was “inactive; negative”, the mutagenic call [6] was “inactive; negative” and the mutagenic call (Test System: AMES SALMONELLA TYPHIMURIUM, Strain/Indicator: TA1537, Metabolic Activation: RAT, LIVER, S-9, AROCLOR 1254 (10%), Method: PREINCUBATION) was “inactive; negative”.
`O=C1C(=O)c2cccc3cccc1c23` was tested, and the mutagenic call (Test System: AMES SALMONELLA TYPHIMURIUM, Strain/Indicator: TA98, Metabolic Activation: HAMSTER, LIVER, S-9, AROCLOR 1254, Method: STANDARD PLATE) was “inactive; negative”, the mutagenic call [1] was “active; positive” and the mutagenic call (Test System: AMES SALMONELLA TYPHIMURIUM, Strain/Indicator: TA98, Metabolic Activation: RAT, LIVER, S-9, AROCLOR 1254, Method: STANDARD PLATE) was “active; positive”. The mutagenic call (Test System: AMES SALMONELLA TYPHIMURIUM, Strain/Indicator: TA100, Metabolic Activation: HAMSTER, LIVER, S-9, AROCLOR 1254, Method: STANDARD PLATE) was “active; positive”, the mutagenic call [2] was “inactive; negative” and the mutagenic call (Test System: AMES SALMONELLA TYPHIMURIUM, Strain/Indicator: TA100, Metabolic Activation: RAT, LIVER, S-9, AROCLOR 1254, Method: STANDARD PLATE) was “inactive; negative”. The mutagenic call (Test System: MOUSE LYMPHOMA, Strain/Indicator: L5178Y (TK+/TK-), Metabolic Activation: NONE, Method: SUSPENSION/PLATE) was “active; positive. reevaluation of results: equivocal” and the mutagenic call (Test System: MOUSE LYMPHOMA, Strain/Indicator: L5178Y (TK+/TK-), Metabolic Activation: RAT, LIVER, S-9, AROCLOR 1254, Method: SUSPENSION/PLATE) was “active; positive. reevaluation of results: equivocal”.
